The source of these data is patent US12662491B2 (Redona Therapeutics, Inc., priority 2020, dated 2026).

pIC50: −log10 of the molar value.

For one assay, the target named is T1, Zcchc11 enzyme (Homo sapiens, UniProt Q5TAX3).
T1 construct: made in house; host or cells: HEK293 cells (Zcchc11); E. coli Rosetta II (LIN28A)
T1 sequence (Q5TAX3 212-1420): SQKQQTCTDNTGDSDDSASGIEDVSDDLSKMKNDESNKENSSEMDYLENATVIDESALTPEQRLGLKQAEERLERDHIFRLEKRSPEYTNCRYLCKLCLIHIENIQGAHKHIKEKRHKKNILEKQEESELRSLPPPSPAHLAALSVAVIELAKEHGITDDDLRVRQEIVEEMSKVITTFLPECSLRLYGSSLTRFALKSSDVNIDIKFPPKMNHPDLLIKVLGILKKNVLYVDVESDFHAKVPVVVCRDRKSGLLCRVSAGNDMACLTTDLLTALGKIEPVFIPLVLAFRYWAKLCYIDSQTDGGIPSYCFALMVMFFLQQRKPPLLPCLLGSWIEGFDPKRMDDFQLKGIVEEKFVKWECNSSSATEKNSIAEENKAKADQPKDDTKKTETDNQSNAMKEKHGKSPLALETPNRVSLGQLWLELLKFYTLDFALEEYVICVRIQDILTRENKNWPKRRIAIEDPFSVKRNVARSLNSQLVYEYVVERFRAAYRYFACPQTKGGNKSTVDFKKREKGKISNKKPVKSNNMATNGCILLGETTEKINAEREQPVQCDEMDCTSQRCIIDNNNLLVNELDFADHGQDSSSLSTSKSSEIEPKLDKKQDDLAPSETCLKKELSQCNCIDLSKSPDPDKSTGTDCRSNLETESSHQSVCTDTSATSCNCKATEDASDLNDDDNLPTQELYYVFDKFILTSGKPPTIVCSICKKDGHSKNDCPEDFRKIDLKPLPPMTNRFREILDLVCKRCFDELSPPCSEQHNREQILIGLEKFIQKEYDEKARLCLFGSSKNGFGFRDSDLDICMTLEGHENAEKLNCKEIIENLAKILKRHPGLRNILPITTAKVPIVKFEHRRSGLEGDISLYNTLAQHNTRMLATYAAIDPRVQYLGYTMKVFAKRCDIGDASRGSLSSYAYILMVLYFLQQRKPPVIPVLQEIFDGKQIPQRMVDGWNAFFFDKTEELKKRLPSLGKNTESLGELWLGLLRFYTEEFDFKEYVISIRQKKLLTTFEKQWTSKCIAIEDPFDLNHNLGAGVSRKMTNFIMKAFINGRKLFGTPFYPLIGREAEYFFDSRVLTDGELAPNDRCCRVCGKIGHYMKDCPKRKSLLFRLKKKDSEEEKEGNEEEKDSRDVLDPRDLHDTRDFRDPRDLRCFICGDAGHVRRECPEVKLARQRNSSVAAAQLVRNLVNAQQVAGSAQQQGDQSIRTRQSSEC
Nature of the assay: TUTase assay (Zcchc11 assay, Lin28a-dependent polyuridylation of pre-let-7). Type of assay: biochemical. As to conditions: LIN28A 10 nM, Zcchc11 0.2 nM, 5′-fluorescein pre-let-7 miRNA 2 nM, UTP 5 uM, room temperature, 30 minutes pre-incubation; read-out: Potency Lin28a-dep Z11 IC50. As for the experimental part:
The purpose of the Zcchc11 assay is to determine compound potency against Zcchc11 enzyme through the measurement of IC50. Compound inhibition is measured as a function of polyuridine tails added to RNA substrates in the presence of active TUTase, UTP, and inhibitor. The Zcchc11 assay was done in a black, non-binding, 384 well plate (Corning #3575). All steps were performed at room temperature. For a typical assay, a 29 ul aliquot of assay buffer (50 mM HEPES pH 7.3, 150 mM KCl, 5 mM MgCl2, 10 mM DTT, 0.01% Triton X-100, 40 U/ml RNAsin (Promega)) containing LIN28A protein (final concentration: 10 nM) is added to each well. Next, 1 ul of compound in 100% DMSO is transferred from a compound dilution plate in which the compound is serially diluted. Next, 10 ul of a 5× mix of Zcchc11 and RNA substrate (5′-fluorescein labeled pre-let-7 miRNA (Dharmacon)) is added (final concentrations: 0.2 nM and 2 nM, respectively). The plate is placed on a plate shaker for 30 seconds to produce mixing, then incubated for 30 minutes. Next, 10 ul of a 5× mix of UTP and the quenching probe (3′-rhodamine labeled A20, polyadenosine nucleotide, (IDT)) is added (final concentrations: 5 uM and 4 nM, respectively). The plate is immediately placed in a Biotek Cytation 5 plate reader, and the time-dependent decrease in fluorescein fluorescence resulting from annealing of the A20 probe to polyuridine tails is recorded, using the kinetics mode of the reader. Reaction rates are obtained using linear fits to the early portion of progress curves. IC50 values are calculated using a four parameter fit with 100% enzyme activity determined from the DMSO control and 0% activity from control samples lacking UTP.
The LIN28A protein was expressed in and purified from E. coli, strain Rosetta II (Novagen). The entire coding sequence of the human, wild-type protein was cloned into expression vector pMAL (NEB), down-stream from a maltose-binding protein tag. The linker sequence contained a TEV protease cleavage site. The protein was purified from bacterial extracts using an MBP-Trap column (GE Healthcare Life Sciences), followed by tag cleavage and removal of the tag by ion-exchange chromatography. When necessary, contaminating bacterial RNA was removed using the procedure describe by Faehnle C R. et al. (2017) Multi-domain utilization by TUT4 and TUT7 in control of let-7 biogenesis. Nat Struct Mol Biol, 24:658-665.
The Zcchc11 protein was expressed in and purified from HEK293 cells. A truncated protein comprising residues 212-1420 of the human sequence was cloned into expression vector pTT5 (Viva Biotech) down-stream from a maltose-binding protein tag. The linker sequence contained a TEV protease cleavage site, and a FLAG tag was added to the carboxyl terminus of the protein. The protein was purified from cell extracts using an MBP-Trap column (GE Healthcare Life Sciences), followed by tag cleavage and further enrichment of the full length construct using anti-FLAG affinity media (Sigma Aldrich).
“+” represents an IC50 value that is greater than 50 μM; “++” represents an IC50 value that is greater than 10 μM and equal to or less than 50 μM; “+++” represents an IC50 value that is greater than 1 μM and equal to or less than 10 μM; and “++++” represents an IC50 value that is equal to or less than 1 μM.
In the case of `CN(C)C1CN(c2ccc(-n3cc(C(=O)O)c(=O)c4cc(C#N)c(N5C(=O)CC[C@@H]5COc5ncccc5Cl)cc43)cn2)C1` [Example 54, (R)-7-(2-(((3-chloropyridin-2-yl)oxy)methyl)-5-oxopyrrolidin-1-yl)-6-cyano-1-(6-(3-(dimethylamino)azetidin-1-yl)pyridin-3-yl)-4-oxo-1,4-dihydroquinoline-3-carboxylic acid], the pIC50 is 4.30 to 5.00.
With `CN(C)C1CN(c2ccc(-n3cc(C(=O)O)c(=O)c4cc(Cl)c(N5CCC[C@]5(C)COc5ncccc5Cl)nc43)cn2)C1` [Example 56, 6-chloro-7-[(2R)-2-[[(3-chloropyridin-2-yl)oxy]methyl]-2-methylpyrrolidin-1-yl]-1-[6-[3-(dimethylamino)azetidin-1-yl]pyridin-3-yl]-4-oxo-1,8-naphthyridine-3-carboxylic acid], the pIC50 is no less than 6.00.
The same measure, in the same setting: then `COCCN1CCC(n2cc(C(=O)O)c(=O)c3cc(Cl)c(N4CCC[C@@H]4COc4ncccc4Cl)cc32)C1` (stereo partly drawn) [Example 38, 6-Chloro-7-[(2R)-2-{[(3-chloropyridin-2-yl)oxy]methyl}-pyrrolidin-1-yl]-1-[1-(2-methoxyethyl)pyrrolidin-3-yl]-4-oxo-1,4-dihydroquinoline-3-carboxylic acid], with 5.00 to 6.00.

Staying with this assay, now noted: Lin28a-dependent Zcchc11 (Z11) TUTase activity; read-out: Potency Lin28a-dep Z11 IC50.
As for `CC1(n2cc(C(=O)O)c(=O)c3cc(Cl)c(N4CCC[C@@H]4CN4CCc5cccnc54)cc32)CC1` [Compound 115, (R)-6-chloro-7-(2-((2,3-dihydro-1H-pyrrolo[2,3-b]pyridin-1-yl)methyl)pyrrolidin-1-yl)-1-(1-methylcyclo-propyl)-4-oxo-1,4-dihydro-quinoline-3-carboxylic acid], the pIC50 was 5.00 to 6.00.
Same read-out and setting: in the case of `CN(C)C1CN(c2ccc(-n3cc(C(=O)O)c(=O)c4cc(Cl)c(N5CCC[C@@H]5COc5nc6nc[nH]c6cc5Cl)cc43)cn2)C1` [Compound 204, (R)-6-chloro-7-(2-(((6-chloro-1H-imidazo [4,5-b]pyridin-5-yl)oxy)methyl)pyrrolidin-1-yl)-1-(6-(3-(dimethyl-amino)azetidin-1-yl)pyridin-3-yl)-4-oxo-1,4-dihydro-quinoline-3-carboxylic acid] it was no less than 6.00; in that of `CN(C)c1ccc(Cl)c(OC[C@H]2C[C@H]3C[C@H]3N2c2cc3c(cc2F)c(=O)c(C(=O)O)cn3-c2ccc(N3CC(N(C)C)C3)nc2)n1` [Compound 338, 7-[(1R,3R,5R)-3-({[3-chloro-6-(dimethyl-amino)pyridin-2-yl]oxy}methyl)-2-azabicyclo [3.1.0]hexan-2-yl]-1-{6-[3-(dimethyl-amino)azetidin-1-yl]pyridin-3-yl}-6-fluoro-4-oxoquinoline-3-carboxylic acid], no less than 6.00; in that of `CN(C)C1CN(c2ccc(-n3cc(C(=O)O)c(=O)c4cc(Cl)c(N5C(COc6ncccc6Cl)CCS5(=O)=O)cc43)cn2)C1` (stereo not shown) [Compound 311, 6-chloro-7-(3-(((3-chloropyridin-2-yl)oxy)methyl)-1,1-dioxidoiso-thiazolidin-2-yl)-1-(6-(3-(dimethyl-amino)azetidin-1-yl)pyridin-3-yl)-4-oxo-1,4-dihydro-quinoline-3-carboxylic acid], no less than 6.00.

The assay is the same for the next values; noted with them: Lin28a-dependent Zcchc11 (Z11) TUTase assay; read-out: Potency Lin28a-dep Z11 IC50.
Take `O=C(O)c1cn(C2CC2)c2c(F)c(N3CCC[C@@H]3COc3cccnc3)c(F)cc2c1=O` [Example 357, (R)-1-cyclopropyl-6,8-difluoro-4-oxo-7-(2-((pyridin-3-yloxy)methyl)pyrrolidin-1-yl)-1,4-dihydro-quinoline-3-carboxylic acid]: the pIC50 was 5.00 to 6.00.
As to `N#Cc1cc2c(=O)c(C(=O)O)cn(-c3ccc(N)nc3)c2cc1N1CCC[C@@H]1COc1ncccc1Cl` [Example 513, (R)-1-(6-aminopyridin-3-yl)-7-(2-(((3-chloropyridin-2-yl)oxy)methyl)pyrrolidin-1-yl)-6-cyano-4-oxo-1,4-dihydroquinoline-3-carboxylic acid], the pIC50 was no less than 6.00.
The same measure, in the same setting: in the case of `CN(C)C1CN(c2ccc(-n3cc(C(=O)O)c(=O)c4cc(Cl)c(N5CC[C@H](O)[C@@H]5COc5ncccc5Cl)cc43)cn2)C1` [Example 667, 6-chloro-7-((2S,3S)-2-(((3-chloropyridin-2-yl)oxy)methyl)-3-hydroxypyrrolidin-1-yl)-1-(6-(3-(dimethylamino)azetidin-1-yl)pyridin-3-yl)-4-oxo-1,4-dihydroquinoline-3-carboxylic acid] it was no less than 6.00.
With `COCCN(C)C1CN(c2ccc(-n3cc(C(=O)O)c(=O)c4cc(F)c(N5CCC[C@@H]5COc5ncccc5Cl)cc43)cn2)C1` [Example 614, (R)-7-(2-(((3-chloropyridin-2-yl)oxy)methyl)pyrrolidin-1-yl)-6-fluoro-1-(6-(3-((2-methoxyethyl) (methyl)amino)azetidin-1-yl)pyridin-3-yl)-4-oxo-1,4-dihydroquinoline-3-carboxylic acid], the pIC50 is no less than 6.00.
Turning to `CN(C)C1CN(c2ccc(-n3cc(C(=O)O)c(=O)c4cc(Cl)c(N5CC(c6ccccc6)C[C@@H]5COc5ncccc5Cl)cc43)cn2)C1` (stereo partly drawn) [Example 593, 6-chloro-7-((2R)-2-(((3-chloropyridin-2-yl)oxy)methyl)-4-phenyl-pyrrolidin-1-yl)-1-(6-(3-(dimethylamino)azetidin-1-yl)pyridin-3-yl)-4-oxo-1,4-dihydroquinoline-3-carboxylic acid], the pIC50 was no less than 6.00.
On the same count and under the same terms, in the case of `O=C(O)c1cn(-c2ccccn2)c2cc(N3CCC[C@@H]3COc3ncccc3Cl)c(Cl)cc2c1=O` [Example 499, (R)-6-chloro-7-(2-(((3-chloropyridin-2-yl)oxy)methyl)pyrrolidin-1-yl)-4-oxo-1-(pyridin-2-yl)-1,4-dihydroquinoline-3-carboxylic acid] it was no less than 6.00.

What is called pIC50 is the IC50 on a negative log10 scale, so that one unit is a factor of ten.
